Laboratory results as given in US9745291B2, “PRMT5 inhibitors containing a dihydro- or tetrahydroisoquinoline and uses thereof” (Epizyme, Inc., priority 2012, dated 2017).
Read-outs that look alike come from different tables or passages of the source.

Key:
PRMT5/MEP50 = PRMT5/MEP50 (Homo sapiens (Human), UniProt O14744); assay: PRMT5 Biochemical Assay (PRMT5/MEP50 enzyme assay on peptide substrate, 3H-SAM Flashplate)
[1] = test system: symmetric di-methyl arginine in Z-138 cells; assay: Z-138 Methylation Assay (In Cell Western for symmetric di-methyl arginine and DNA content); format: cell-based; details: read-out: ICW EC50
Excerpt: [formula] Where top and bottom are the normally allowed to float, but may be fixed at 100 or 0 respectively in a 3-parameter fit. The Hill Coefficient normally allowed to float but may also be fixed at 1 in a 3-parameter fit. Y is the % inhibition and X is the compound concentration. Z-138 Methylation Assay
Z-138 suspension cells were purchased from ATCC (American Type Culture Collection, Manassas, Va.). RPMI/Glutamax medium, penicillin-streptomycin, heat inactivated fetal bovine serum, and D-PBS were purchased from Life Technologies, Grand Island, N.Y., USA. Odyssey blocking buffer, 800CW goat anti-rabbit IgG (H+L) antibody, and Licor Odyssey infrared scanner were purchased from Licor Biosciences, Lincoln, Nebr., USA. Symmetric di-methyl arginine antibody was purchased from EMD Millipore, Billerica, Mass., USA. 16% Paraformaldehyde was purchased from Electron Microscopy Sciences, Hatfield, Pa., USA.
Z-138 suspension cells were maintained in growth medium (RPMI 1640 supplemented with 10% v/v heat inactivated fetal bovine serum and 100 units/mL penicillin-streptomycin) and cultured at 37° C. under 5% CO2.
Cell Treatment, in Cell Western (ICW) for Detection of Symmetric Di-Methyl Arginine and DNA Content.
Z-138 cells were seeded in assay medium at a concentration of 50,000 cells per mL to a 384-well cell culture plate with 50 μL per well. Compound (100 nL) from 384 well source plates was added directly to 384 well cell plate. Plates were incubated at 37° C., 5% CO2 for 96 hours. After four days of incubation, 40 μL of cells from incubated plates were added to poly-D-lysine coated 384 well culture plates (BD Biosciences 356697). Plates were incubated at room temperature for 30 minutes then incubated at 37° C., 5% CO2 for 5 hours. After the incubation, 40 μL per well of 8% paraformaldehyde in PBS (16% paraformaldahyde was diluted to 8% in PBS) was added to each plate and incubated for 30 minutes. Plates were transferred to a Biotek 405 plate washer and washed 5 times with 100 μL per well of wash buffer (1×PBS with 0.1% Triton X-100 (v/v)). Next 30 μL per well of Odyssey blocking buffer were added to each plate and incubated 1 hour at room temperature. Blocking buffer was removed and 20 μL per well of primary antibody was added (symmetric di-methyl arginine diluted 1:100 in Odyssey buffer with 0.1% Tween 20 (v/v)) and plates were incubated overnight (16 hours) at 4° C. Plates were washed 5 times with 100 μL per well of wash buffer. Next 20 μL per well of secondary antibody was added (1:200 800CW goat anti-rabbit IgG (H+L) antibody, 1:1000 DRAQ5 (Biostatus limited) in Odyssey buffer with 0.1% Tween 20 (v/v)) and incubated for 1 hour at room temperature. The plates were washed 5 times with 100 μL per well wash buffer then 1 time with 100 μL per well of water. Plates were allowed to dry at room temperature then imaged on the Licor Odyssey machine which measures integrated intensity at 700 nm and 800 nm wavelengths. Both 700 and 800 channels were scanned.
First, the ratio for each well was determined by:
Each plate included fourteen control wells of DMSO only treatment (minimum inhibition) as well as fourteen control wells for maximum inhibition treated with 3 μM of a reference compound (Background wells). The average of the ratio values for each control type was calculated and used to determine the percent inhibition for each test well in the plate. Reference compound was serially diluted three-fold in DMSO for a total of nine test concentrations, beginning at 3 μM. Percent inhibition was determined and IC50 curves were generated using triplicate wells per concentration of compound. […]

Z-138 cell line = assay: Z-138 Proliferation Assay (Cell Titer Glo, 5 days); format: cell-based; details: Z-138 cells
Summary of the method: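 Z-138 cells at 10,000 cells/ml in RPMI 1640 with 10% heat-inactivated FBS treated with nine-point 3-fold dilutions, top final concentration 20 μM, 0.2% DMSO, for 5 days at 37° C, 5% CO2. Viability by Cell Titer Glo ATP luminescence; 50% inhibition concentration from 4-parameter fit.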

[2] = PRMT5 biochemical assay, read-out: Biochemical IC50
[3] = Homo sapiens, Z-138, Z-138 cells

Chain of PRMT5/MEP50 (O14744 other isoform, or with tags, fused parts or gaps): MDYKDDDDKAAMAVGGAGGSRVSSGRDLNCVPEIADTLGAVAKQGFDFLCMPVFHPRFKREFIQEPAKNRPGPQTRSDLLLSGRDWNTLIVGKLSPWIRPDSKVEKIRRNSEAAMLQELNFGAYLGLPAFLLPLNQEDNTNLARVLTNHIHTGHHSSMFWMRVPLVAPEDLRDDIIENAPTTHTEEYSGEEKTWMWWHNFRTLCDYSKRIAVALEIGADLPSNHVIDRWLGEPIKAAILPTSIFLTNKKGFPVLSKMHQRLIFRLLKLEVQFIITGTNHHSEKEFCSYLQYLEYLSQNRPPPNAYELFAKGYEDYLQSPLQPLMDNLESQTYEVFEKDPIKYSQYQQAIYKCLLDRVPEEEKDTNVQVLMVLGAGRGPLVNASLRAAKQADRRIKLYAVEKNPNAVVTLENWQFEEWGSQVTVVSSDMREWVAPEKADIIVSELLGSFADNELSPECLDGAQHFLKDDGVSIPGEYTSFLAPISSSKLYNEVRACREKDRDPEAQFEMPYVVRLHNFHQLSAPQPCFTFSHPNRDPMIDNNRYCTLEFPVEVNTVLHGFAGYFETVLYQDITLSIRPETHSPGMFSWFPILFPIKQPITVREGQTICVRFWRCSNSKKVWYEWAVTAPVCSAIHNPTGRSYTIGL
Chain of PRMT5/MEP50 (Q9BQA1 other isoform, or with tags, fused parts or gaps partner): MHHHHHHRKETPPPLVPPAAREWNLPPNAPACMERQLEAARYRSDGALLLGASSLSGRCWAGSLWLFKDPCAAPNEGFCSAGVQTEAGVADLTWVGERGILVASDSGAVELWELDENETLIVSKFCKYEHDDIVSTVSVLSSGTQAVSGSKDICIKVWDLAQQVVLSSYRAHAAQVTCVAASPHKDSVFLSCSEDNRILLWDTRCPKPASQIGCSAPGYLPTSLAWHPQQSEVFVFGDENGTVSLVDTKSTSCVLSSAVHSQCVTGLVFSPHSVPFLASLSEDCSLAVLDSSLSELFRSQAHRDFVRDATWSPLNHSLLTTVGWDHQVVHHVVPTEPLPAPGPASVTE

Row | Molecule | IC50 (PRMT5/MEP50; [2]) [µM] | EC50 [1, 3] [µM] | EC50 (Z-138 cell line; Homo sapiens, Z-138, 120 h) [µM] | IC50 (PRMT5/MEP50) [µM] | EC50 ([1]; Z-138 cells) [µM] | EC50 (Z-138 cell line) [µM]
1 | COc1cccc2[nH]c(CCC(=O)NC[C@H](O)CN3CCc4ccccc4C3)nc12 [Compound 242] | < 0.1 | < 0.1 | 1 to 10 | – | – | –
2 | O=C(CCc1nc(-c2ccccc2)c[nH]1)NC[C@H](O)CN1CCc2ccccc2C1 [Compound 243] | < 0.1 | < 0.1 | 1 to 10 | – | – | –
3 | COCCNCCNC(=O)c1cccc(OCC(=O)NC[C@@H](O)CN2CCc3ccccc3C2)c1 [Compound 244] | < 0.1 | > 1 | > 20 | – | – | –
4 | Cn1ccnc1CCNC(=O)c1cccc(OCC(=O)NC[C@@H](O)CN2CCc3ccccc3C2)c1 [Compound 245] | 0.101 to 1 | > 1 | > 20 | – | – | –
5 | CNC1CN(S(=O)(=O)c2ccccc2OCC(=O)NC[C@@H](O)CN2CCc3ccccc3C2)CC1O (stereo partly drawn) [Compound 246] | < 0.1 | 0.101 to 1 | > 20 | – | – | –
6 | CN1CCCC(c2c(CS(C)(=O)=O)cccc2OCC(=O)NC[C@@H](O)CN2CCc3ccccc3C2)C1 (stereo partly drawn) [Compound 247] | 0.101 to 1 | > 1 | > 20 | – | – | –
7 | COc1ccc2[nH]c(CCC(=O)NC[C@H](O)CN3CCc4ccccc4C3)nc2c1 [Compound 249] | < 0.1 | < 0.1 | 1 to 10 | – | – | –
8 | Cc1cccc2[nH]c(CCC(=O)NC[C@H](O)CN3CCc4ccccc4C3)nc12 [Compound 250] | < 0.1 | < 0.1 | 1 to 10 | – | – | –
9 | O=C(COc1ccccc1C1CCCCN1)NC[C@H](O)CN1CCc2ccccc2C1 (stereo partly drawn) [Compound 253] | < 0.1 | 0.101 to 1 | 10 to 50 | – | – | –
10 | CC1NCCCC1c1ccccc1OCC(=O)NC[C@@H](O)CN1CCc2ccccc2C1 (stereo partly drawn) [Compound 254] | 0.101 to 1 | > 1 | 10 to 50 | – | – | –
11 | Cn1cncc1-c1cccc(OCC(=O)NC[C@@H](O)CN2CCc3ccccc3C2)c1 [Compound 255] | 0.101 to 1 | 0.101 to 1 | > 20 | – | – | –
12 | Cn1cc(-c2ccccc2)nc1CCC(=O)NC[C@H](O)CN1CCc2ccccc2C1 [Compound 256] | 0.101 to 1 | 0.101 to 1 | > 20 | – | – | –
13 | CN1CC(CN(C)S(=O)(=O)c2ccccc2OCC(=O)NC[C@@H](O)CN2CCc3ccccc3C2)C1 [Compound 257] | < 0.1 | < 0.1 | 0.101 to 1 | – | – | –
14 | CN1CCCCC1c1ccccc1OCC(=O)NCC(O)CN1CCc2ccccc2C1 (stereo not drawn) [Compound 258] | 0.101 to 1 | 0.101 to 1 | 1 to 10 | – | – | –
15 | Cn1ccnc1CCC(=O)NC[C@H](O)CN1CCc2ccccc2C1 [Compound 259] | 0.101 to 1 | 0.101 to 1 | > 20 | – | – | –
16 | CC(C)N(C)CCN(C)S(=O)(=O)c1ccccc1OCC(=O)NC[C@@H](O)CN1CCc2ccccc2C1 [Compound 260] | < 0.1 | < 0.1 | 1 to 10 | – | – | –

Row | Molecule | IC50 (PRMT5/MEP50; [2]) [µM] | EC50 [1, 3] [µM] | EC50 (Z-138 cell line; Homo sapiens, Z-138, 120 h) [µM] | IC50 (PRMT5/MEP50) [µM] | EC50 ([1]; Z-138 cells) [µM] | EC50 (Z-138 cell line) [µM]
17 | O=C(COc1ccccc1[C@H]1CCCNC1)NC[C@H](O)CN1CCc2ccccc2C1 [Compound 261] | < 0.1 | 0.101 to 1 | 1 to 10 | – | – | –
18 | O=C(COc1ccccc1[C@@H]1CCCNC1)NC[C@H](O)CN1CCc2ccccc2C1 [Compound 262] | < 0.1 | 0.101 to 1 | 10 to 50 | – | – | –
19 | O=C(COc1ccccc1[C@H]1CCCNC1)NC[C@@H](O)CN1CCc2ccccc2C1 [Compound 263] | 0.101 to 1 | 0.101 to 1 | 10 to 50 | – | – | –
20 | O=C(COc1ccccc1[C@@H]1CCCNC1)NC[C@@H](O)CN1CCc2ccccc2C1 [Compound 264] | 0.101 to 1 | > 1 | 10 to 50 | – | – | –
21 | CS(=O)(=O)Nc1cccc(OCC(=O)NC[C@@H](O)CN2CCc3ccccc3C2)c1C1CCCNC1 (stereo partly drawn) [Compound 265] | 0.101 to 1 | > 1 | > 20 | – | – | –
22 | CC(C)N1CCCC(c2c(NS(C)(=O)=O)cccc2OCC(=O)NC[C@@H](O)CN2CCc3ccccc3C2)C1 (stereo partly drawn) [Compound 266] | 0.101 to 1 | > 1 | > 20 | – | – | –
23 | O=C(COc1cccc(C(=O)NCCc2ncc[nH]2)c1)NC[C@@H](O)CN1CCc2ccccc2C1 [Compound 267] | 0.101 to 1 | > 1 | > 20 | – | – | –
24 | [2H]C1([2H])Cc2ccccc2C([2H])([2H])N1C[C@H](O)CNC(=O)COc1cccc2cccnc12 [Compound 269] | – | 0.101 to 1 | > 5 | 0.101 to 1 | – | –
25 | O=C(COc1ccccc1N1CCNCC1)NC[C@H](O)CN1CCc2ccccc2C1 [Compound 271] | < 0.1 | < 0.1 | 1 to 10 | – | – | –
26 | CN(C)C1CCN(S(=O)(=O)c2ccccc2OCC(=O)NC[C@@H](O)CN2CCc3ccccc3C2)C1 (stereo partly drawn) [Compound 273] | < 0.1 | 0.101 to 1 | 10 to 50 | – | – | –
27 | CN1CC[C@H](CN(C)S(=O)(=O)c2ccccc2OCC(=O)NC[C@@H](O)CN2CCc3ccccc3C2)C1 [Compound 274] | < 0.1 | < 0.1 | 0.101 to 1 | – | – | –
28 | CN1CCN(c2cccc(OCC(=O)NC[C@@H](O)CN3CCc4ccccc4C3)c2S(=O)(=O)N(C)C)CC1 [Compound 275] | < 0.1 | < 0.1 | < 0.1 | – | – | –
29 | CC1CN(c2cccc(OCC(=O)NC[C@@H](O)CN3CCc4ccccc4C3)c2S(=O)(=O)N(C)C)CCN1 (stereo partly drawn) [Compound 276] | < 0.1 | < 0.1 | < 0.1 | – | – | –
30 | CCN1CCN(c2cccc(OCC(=O)NC[C@@H](O)CN3CCc4ccccc4C3)c2S(=O)(=O)N(C)C)CC1 [Compound 277] | < 0.1 | < 0.1 | < 0.1 | – | – | –
31 | CN(C)S(=O)(=O)c1c(OCC(=O)NC[C@@H](O)CN2CCc3ccccc3C2)cccc1N1CCN(C2CC2)CC1 [Compound 278] | < 0.1 | < 0.1 | < 0.1 | – | – | –
32 | N-(3-(3,4-dihydroisoquinolin-2(1H)-yl)-2-hydroxypropyl)-2-((1-(1-methylpiperidin-4-yl)-1H-indazol-5-yl)oxy)acetamide [Compound 71] | < 0.1 | – | – | – | 0.101 to 1 | > 20
